The text below walks through data of patent US20040141944A1, “Inhibition of xenoreactive antibodies” (priority 1998, published 2004).

In one data set the test system is Purified CD19+B cells. Put plainly: effect of TPC on T cell-independent anti-Gal B cell activation (ELISPOT). It is filed as cell-based. The note with it: TPC (410S) 1 mg/mL pretreatment 30 min or 50 ug/mL daily; 5 day culture with SAC, IL-2, IL-4, anti-CD40. The method, then: To each well of the first 10 columns of a sterile hydrazine modified polystyrene 96-well plate (Corning Costar, Cambridge, Mass.), 100 μL per well of a solution containing 3.2 mg/mL αGal(1,3)Gal β 1-4 GlcNAc, 3.1 mg/mL EDC and 2.4 mg/mL NHS were added in a darkened cold room and the reaction proceeded for four hours. After careful washing with sterile H2O, the plates were completely covered with plastic strips and stored at 4° C. until use. Plates were blocked with sterile 400 ul/well of PBS/1% HSA for 2 hours at 37° C. Peripheral blood mononuclear cells were isolated by Ficoll-Hypaque (specific gravity, 1.077 g/mL; Pharmacia Fine Chemicals, Piscatawy, N.J.) density gradients at 400 g for 30 min. at 22° C. […] Plates were incubated overnight in the dark at room temperature and single Ab-secreting, spot forming cells (ASC) were visualized, analyzed and counted under low magnification using an inverted phase microscope. Data represents total isotype specific anti-gal Ab-secreting cells/10^6 PBMNCs, calculated from serially diluted cell samples.
Purified CD19+B cells were obtained by positive selection with the use of anti-CD19+ immunomagnetic beads (Pan-B (CD19); Dynal, Lake Success, N.Y.). […] Following the 5 day culture period, cells were washed extensively, counted, viability determined and the number of ASC determined using the anti-Gal ELISPOT assay. […]

A further data set relates to IgM XNAs. Nature of the data set: effect of TPC on xenoreactive antibody level in baboons. The format is in vivo, baboon. From the text:
The TPC molecule 410S was synthesized as described in Example 5 above. Baboons were first immunoapheresed using α-gal-columns in order to remove circulating αGal antibodies, and to set a basis for comparison of the ability of TPC to remove αGal antibodies from the circulation.
The procedures for treating and transplanting the baboons are described in Shu S. Lin et al., Transplant Immunol. 5:212-218, 1997. Descriptions of methods for making αGal-columns are contained in U.S. Pat. Nos. 5,695,759 and 5,651,968, which are herein incorporated by reference. Briefly, each baboon subject was prepared for plasma treatment by induction of anesthesia with ketamine HCl and pentamine, and anesthesia was then maintained during all procedures under inhalation and Forane™ gas. The subject's bloodstream was asceptically connected by intravenous puncture to a plasmapheresis machine which separated the plasma from the cells and platelets. The plasma was asceptically conducted to an α-gal column; effluent from the column was pumped and remixed on-line with the cells and platelets, and reinfused to the subject. This procedure was carried out continuously for 2-3 plasma volumes. The blood flow rate of 75-100 cc/min (with a plasma flow rate of 35-50 cc/min), was well tolerated by the subject. The entire column procedure lasted 1-1.5 hours.
250 mg of TPC (410S, as described in Example 5 above) was administered as noted in FIGS. 12 and 13.

Data set [1] concerns xenoreactive IgG (X IgG) and xenoreactive IgM (X IgM). Put plainly: effect of TPC on xenoreactive antibody levels in cynomolgous monkeys. The format is in vivo. The method, then:
TPC molecule 410S was prepared as described in Example 5. 410S or PEG control was administered to cynomolgous monkeys in doses of either 50 mg or 250 mg every 3 days for 2 weeks. Blood was drawn for serum before and after each administration. During the subsequent 2 week period, blood was drawn each Monday and Friday. Serum samples were analyzed for xenoreactive IgG (X IgG) and xenoreactive IgM (X IgM).

Take “(αGal(1,3)Gal β 1-4 GlcNAc)4-PEG [Example 410S]”: the “effect on the number of detectable ASCs” value in the data set with Purified CD19+B cells is “no effect”. Also, the “effect on total cell yield and viability” value in the data set with Purified CD19+B cells was “no effect”. The “IgM XNA, % pretreatment levels” value in the data set on IgM XNAs (Baboon 376-96, after next administration of 250 mg TPC) was “about 5%”; in the data set on IgM XNAs (Baboon 376-96, three days after first TPC (rebound)), 35%. Besides, the “circulating IgM XNA levels” value with IgM XNAs (Baboon 376-96, after second immunoapheresis plus 250 mg TPC) was “undetectable”. Further, the “circulating levels of IgM XNA” value in the data set on IgM XNAs (Baboon 376-96, six subsequent administrations of 250 mg TPC every 3 or 4 days) is given as “lower each time”. Also, the “levels of IgM XNAs” value in the data set on IgM XNAs (Baboon 377-96, infusion of 250 mg TPC after third immunoapheresis) was “undetectable”. The “IgM XNA levels, % pretreatment levels” value in the data set with IgM XNAs (Baboon 377-96, three days after the 250 mg TPC infusion (rebound)) is recorded as “about 15%”. In addition, the “effect on anti-Gal IgG levels” value in data set [1] (50 mg and 250 mg doses, compared with the IgM effect) is “the effect was not as dramatic”. Also, the “anti-Gal IgM level, % of the initial level” value in data set [1] (50 mg animals, 15 days post-treatment) is on record as around 40%; in data set [1] (50 mg dose every 3 days, after 6 TPC treatments), “approximately 15%”; in data set [1] (250 mg dose every 3 days, after 6 TPC treatments) it was “approximately 5%”. In data set [1] (250 mg animals, 15 days post-treatment), the “anti-Gal IgM level, % of the predosing level” value is 15%.
